{"source": "ChEMBL document CHEMBL5584293", "about": "“Discovery and evaluation of novel spiroheterocyclic protective agents via a SIRT1 upregulation mechanism in cisplatin-induced premature ovarian failure” (Bioorg Med Chem, 2024)", "key": {"[1]": {"assay": "Cytotoxicity against human PDL cells assessed as cell survival rate at 50 uM incubated for 48 hrs by MTT assay relative to control", "assay_type": "toxicity, cell-based", "details": "read-out: Survival"}, "[2]": {"assay": "Cytotoxicity against rat NRK cells assessed as cell survival rate at 50 uM incubated for 48 hrs by MTT assay relative to control", "assay_type": "toxicity, cell-based", "details": "read-out: Survival"}, "[3]": {"assay": "Cytotoxicity against human MIHA cells assessed as cell survival rate at 50 uM incubated for 48 hrs by MTT assay relative to control", "assay_type": "toxicity, cell-based", "details": "read-out: Survival"}, "[4]": {"test_system": "KGN", "assay": "Protective effect against cisplatin-induced injury in human KGN cells assessed as cell survival rate at 5 uM incubated for 48 hrs by MTT assay (Rvb ~ 60 %)", "assay_type": "functional", "details": "read-out: Survival"}, "[5]": {"test_system": "KGN", "assay": "Cytotoxicity against human KGN cells at 1.25 to 10 uM incubated for 48 hrs by MTT assay", "assay_type": "toxicity, cell-based", "details": "dose 1.25-10 µM"}, "[6]": {"test_system": "KGN", "assay": "Protective effect against cisplatin-induced injury in human KGN cells assessed as increase in SIRT1 level incubated for 36 hrs by Western blot analysis", "assay_type": "functional, cell-based", "details": "dose <= 10.0 µM"}, "[7]": {"test_system": "Rattus norvegicus", "assay": "Protective effect against cisplatin-induced damage in Wistar rat assessed as increase in sinus follicle numbers in ovaries at 50 mg/kg, IG qd for 14 days by H and E staining based analysis", "assay_type": "functional, organism-based", "details": "time 14.0 day"}, "[8]": {"test_system": "KGN", "assay": "Protective effect against cisplatin-induced injury in human KGN cells assessed as recovery of cellular suspension at 1 to 10 uM by inverted microscopy", "assay_type": "functional, cell-based", "details": "dose 1-10 µM"}, "[9]": {"test_system": "KGN", "assay": "Protective effect against cisplatin-induced injury in human KGN cells harboring siSIRT1 at 2.5 uM incubated for 36 hrs by Western blot analysis", "assay_type": "functional, cell-based"}, "[10]": {"test_system": "Rattus norvegicus", "assay": "Protective effect against cisplatin-induced damage in Wistar rat assessed as increase in growing follicle numbers in ovaries at 50 mg/kg, IG qd for 14 days by H and E staining based analysis", "assay_type": "functional, organism-based", "details": "time 14.0 day"}, "[11]": {"test_system": "Rattus norvegicus", "assay": "Protective effect against cisplatin-induced damage in Wistar rat assessed as reduction in vascular congestion in ovaries at 50 mg/kg, IG qd for 14 days by H and E staining based analysis", "assay_type": "functional, organism-based", "details": "time 14.0 day"}, "[12]": {"test_system": "KGN", "assay": "Protective effect against cisplatin-induced injury in human KGN cells assessed as recovery of cellular disruption at 1 to 10 uM by inverted microscopy", "assay_type": "functional, cell-based", "details": "dose 1-10 µM"}, "[13]": {"test_system": "Rattus norvegicus", "assay": "Protective effect against cisplatin-induced damage in Wistar rat assessed as improvement in ovarian structure at 50 mg/kg, IG qd for 14 days by H and E staining based analysis", "assay_type": "functional, organism-based", "details": "time 14.0 day"}, "[14]": {"test_system": "KGN", "assay": "Protective effect against cisplatin-induced injury in human KGN cells assessed as increase in cell survival incubated for 48 hrs by MTT assay", "assay_type": "functional, cell-based", "details": "dose 1.25-10 µM"}, "[15]": {"test_system": "KGN", "assay": "Inhibition of cisplatin-induced apoptosis in human KGN cells at 5 uM incubated for 36 hrs by Annexin V-FITC/PI staining based analysis (reference value: 53.9 %)", "assay_type": "functional"}, "[16]": {"test_system": "KGN", "assay": "Protective effect against cisplatin-induced injury in human KGN cells assessed as increase in p-AKT level incubated for 36 hrs by Western blot analysis", "assay_type": "functional, cell-based", "details": "dose <= 10.0 µM"}, "[17]": {"test_system": "KGN", "assay": "Protective effect against cisplatin-induced injury in human KGN cells assessed as cell survival at 25 to 50 uM incubated for 48 hrs by MTT assay", "assay_type": "functional, cell-based", "details": "dose 25-50 µM"}, "[18]": {"test_system": "KGN", "assay": "Inhibition of cisplatin-induced apoptosis in human KGN cells assessed as decrease in Bax expression at 1 to 10 uM by immunoblot analysis", "assay_type": "functional, cell-based", "details": "dose 1-10 µM"}, "[19]": {"test_system": "Rattus norvegicus", "assay": "Protective effect against cisplatin-induced damage in Wistar rat assessed as increase in ovarian weight at 50 mg/kg, IG qd for 14 days", "assay_type": "functional, organism-based", "details": "time 14.0 day"}, "[20]": {"test_system": "KGN", "assay": "Protective effect against cisplatin-induced injury in human KGN cells assessed as recovery of cell numbers at 1 to 10 uM by inverted microscopy", "assay_type": "functional, cell-based", "details": "dose 1-10 µM"}, "[21]": {"test_system": "Rattus norvegicus", "assay": "Protective effect against cisplatin-induced damage in Wistar rat assessed as increase in uterine weight at 50 mg/kg, IG qd for 14 days", "assay_type": "functional, organism-based", "details": "time 14.0 day"}, "[22]": {"test_system": "KGN", "assay": "Protective effect against cisplatin-induced injury in human KGN cells assessed as cell survival rate at 5 uM incubated for 48 hrs by MTT assay (reference value: 65 %)", "assay_type": "functional", "details": "read-out: Survival"}, "[23]": {"test_system": "Rattus norvegicus", "assay": "Protective effect against cisplatin-induced damage in Wistar rat assessed as increase in primordial follicle numbers in ovaries at 50 mg/kg, IG qd for 14 days by H and E staining based analysis", "assay_type": "functional, organism-based", "details": "time 14.0 day"}, "[24]": {"test_system": "KGN", "assay": "Inhibition of cisplatin-induced apoptosis in human KGN cells at 10 uM incubated for 36 hrs by Annexin V-FITC/PI staining based analysis (reference value: 53.9 %)", "assay_type": "functional"}, "[25]": {"test_system": "Rattus norvegicus", "assay": "Protective effect against cisplatin-induced damage in Wistar rat assessed as decrease in atretic follicle numbers in ovaries at 50 mg/kg, IG qd for 14 days by H and E staining based analysis", "assay_type": "functional, organism-based", "details": "time 14.0 day"}, "[26]": {"test_system": "KGN", "assay": "Inhibition of cisplatin-induced apoptosis in human KGN cells at 1 uM incubated for 36 hrs by Annexin V-FITC/PI staining based analysis (reference value: 53.9 %)", "assay_type": "functional"}, "[27]": {"test_system": "KGN", "assay": "Inhibition of cisplatin-induced apoptosis in human KGN cells assessed as increase in Bcl-2 expression at 1 to 10 uM by immunoblot analysis", "assay_type": "functional, cell-based", "details": "dose 1-10 µM"}, "[28]": {"test_system": "KGN", "assay": "Protective effect against cisplatin-induced injury in human KGN cells assessed as recovery of cell growth at 1 to 10 uM by inverted microscopy", "assay_type": "functional, cell-based", "details": "dose 1-10 µM"}, "[29]": {"test_system": "KGN", "assay": "Protective effect against cisplatin-induced injury in human KGN cells assessed as increase in serum E2 level at 1 to 10 uM by ELISA", "assay_type": "functional, cell-based", "details": "dose 1-10 µM"}, "[30]": {"test_system": "Rattus norvegicus", "assay": "Protective effect against cisplatin-induced damage in Wistar rat assessed as increase in organ indices at 50 mg/kg, IG qd for 14 days", "assay_type": "functional, organism-based", "details": "time 14.0 day"}, "[31]": {"test_system": "Rattus norvegicus", "assay": "Protective effect against cisplatin-induced damage in Wistar rat assessed as decrease in uterine wall thinning at 50 mg/kg, IG qd for 14 days by H and E staining based analysis", "assay_type": "functional, organism-based", "details": "time 14.0 day"}, "[32]": {"assay": "Toxicity in Wistar rat model of cisplatin-induced damage assessed as body weight loss at 50 mg/kg, IG qd for 7 to 14 days", "assay_type": "organism-based", "details": "in vivo, po, time 7-14 day"}, "[33]": {"test_system": "Rattus norvegicus", "assay": "Protective effect against cisplatin-induced damage in Wistar rat assessed as increase in serum E2 level at 50 mg/kg, IG qd for 14 days by ELISA", "assay_type": "functional, organism-based", "details": "time 14.0 day"}}, "note": "Calls of active or inactive are those of the source. No cut-off for these calls is given here.", "data": [{"smiles": "CN1C[C@H](c2ccccc2)[C@]2(CCC/C(=C\\c3ccccc3)C2=O)[C@]12C(=O)c1cccc3cccc2c13", "values": [{"measurement": "viability at 48 h, 50 µM", "setting": "[1]", "value": 97.5, "unit": "%"}, {"measurement": "viability at 48 h, 50 µM", "setting": "[2]", "value": 94, "unit": "%"}, {"measurement": "viability at 48 h, 50 µM", "setting": "[3]", "value": 89.5, "unit": "%"}]}, {"smiles": "CC1N[C@@]2(C(=O)c3cccc4cccc2c34)[C@@]2(CCC/C(=C\\c3ccccc3)C2=O)[C@H]1c1ccccc1", "note": "(stereo partly drawn)", "values": [{"measurement": "viability at 5 µM", "setting": "[4]", "value": 75.3, "unit": "%"}]}, {"smiles": "COc1ccc(/C=C2\\CCC[C@@]3(C2=O)[C@@H](c2ccc(OC)c(OC)c2)C(C)N[C@@]32C(=O)c3cccc4cccc2c34)cc1OC", "note": "(stereo partly drawn)", "values": [{"measurement": "Activity", "setting": "[5]", "value": "Non-Toxic"}, {"measurement": "Activity", "setting": "[6]", "value": "Dose-Dependent Effect"}, {"measurement": "Activity", "setting": "[7]", "value": "Active"}, {"measurement": "Activity", "setting": "[8]", "value": "Active"}, {"measurement": "Activity", "setting": "[9]", "value": "inactive"}, {"measurement": "Activity", "setting": "[10]", "value": "Active"}, {"measurement": "Activity", "setting": "[11]", "value": "Active"}, {"measurement": "Activity", "setting": "[12]", "value": "Active"}, {"measurement": "Activity", "setting": "[13]", "value": "Active"}, {"measurement": "Activity", "setting": "[14]", "value": "Dose-Dependent Effect"}, {"measurement": "inhibition at 5 µM", "setting": "[15]", "value": 21.1, "unit": "%"}, {"measurement": "Activity", "setting": "[16]", "value": "Dose-Dependent Effect"}, {"measurement": "Activity", "setting": "[17]", "value": "Active"}, {"measurement": "inhibition", "setting": "[18]", "value": "Active"}, {"measurement": "Activity", "setting": "[19]", "value": "Active"}, {"measurement": "Activity", "setting": "[20]", "value": "Active"}, {"measurement": "Activity", "setting": "[21]", "value": "Active"}, {"measurement": "viability at 5 µM", "setting": "[22]", "value": 94, "unit": "%"}, {"measurement": "Activity", "setting": "[23]", "value": "Active"}, {"measurement": "inhibition at 10 µM", "setting": "[24]", "value": 27.8, "unit": "%"}, {"measurement": "Activity", "setting": "[25]", "value": "Active"}, {"measurement": "inhibition at 1 µM", "setting": "[26]", "value": 8.6, "unit": "%"}, {"measurement": "inhibition", "setting": "[27]", "value": "Active"}, {"measurement": "Activity", "setting": "[28]", "value": "Active"}, {"measurement": "Activity", "setting": "[29]", "value": "Active"}, {"measurement": "Activity", "setting": "[30]", "value": "Active"}, {"measurement": "Activity", "setting": "[31]", "value": "Active"}, {"measurement": "Activity", "setting": "[32]", "value": "Non-Toxic"}, {"measurement": "Activity", "setting": "[33]", "value": "Active"}]}]}
